The record followed here is patent US20170283396A1, “DIAMINOHETEROARYL SUBSTITUTED INDAZOLES” (Bayer Pharma Aktiengesellschaft, priority 2013, published 2017).

Bounds are passed on as bounds.

The target of experiment [1] is T1, catalytic domain of human Bub1 (amino acids 704-1085) (Homo sapiens, UniProt O43683).
T1 construct: catalytic domain of human Bub1 (amino acids 704-1085); His6 (N); made in house; host or cells: Hi5 insect cells
Nature of the experiment: Bub1 kinase assay (TR-FRET). The format is biochemical. On the procedure: To this end, 100-fold concentrated compound solutions (in DMSO) were previously prepared by serial dilution (1:3.4) of 2 mM stocks in a clear low volume 384-well source microtiter plate (Greiner Bio-One, Frickenhausen, Germany), from which 50 nl of compounds were transferred into a black low volume test microtiter plate from the same supplier. […] The resulting mixture (5 μL final volume) was incubated at […] during 60 min., and the reaction was stopped by the addition of 5 μL of an aqueous EDTA-solution (50 mM EDTA, in 100 mM HEPES pH 7.5 and 0.2% (w/v) bovine serum albumin) which also contained the TR-FRET detection reagents (0.2 μM streptavidin-XL665 [Cisbio Bioassays, Codolet, France] and 1 nM anti-phosho-Serine antibody [Merck Millipore, cat. #35-001] and 0.4 nM LANCE EU-W1024 labeled anti-mouse IgG antibody [Perkin-Elmer, product no. AD0077, alternatively a Terbium-cryptate-labeled anti-mouse IgG antibody from Cisbio Bioassays can be used]). The stopped reaction mixture was further incubated 1 h at 22° C. in order to allow the formation of complexes between peptides and detection reagents. Subsequently, the amount of product was evaluated by measurement of the resonance energy transfer from the Eu-chelate-antibody complex recognizing the Phosphoserine residue to the streptavidin-XL665 bound to the biotin moiety of the peptide. […] IC50 values were calculated by fitting the normalized inhibition data to a 4-parameter logistic equation (Minimum, Maximum, IC50, Hill; Y=Max+(Min−Max)/(1+(X/IC50)Hill)).
A general note: TR-FRET usually uses a lanthanide donor and a delayed reading to cut background.

The subject of a further experiment is B16F10 cell line. The experiment in a line: Proliferation assay (B16F10 cell line). The format is cell-based. As to conditions: Mus musculus, B16-F10, 96 h; B16F10, melanoma; 4 days incubation, crystal violet staining; read-out: Biological Assay 2: Proliferation assay (B16F10 cell line) median IC50. On the procedure: (§1) Cultivated tumor cells (cells were ordered from ATCC, except HeLa-MaTu and HeLa-MaTu-ADR, which were ordered from EPO-GmbH, Berlin) were plated at a density of 1000 to 5000 cells/well, depending on the growth rate of the respective cell line, in a 96-well multititer plate in 200 μL of their respective growth medium supplemented 10% fetal calf serum. After 24 hours, the cells of one plate (zero-point plate) were stained with crystal violet (see below), while the medium of the other plates was replaced by fresh culture medium (200 μL), to which the test substances were added in various concentrations (0 μM, as well as in the range of 0.001-10 μM; the final concentration of the solvent dimethyl sulfoxide was 0.5%). The cells were incubated for 4 days in the presence of test substances. Cell proliferation was determined by staining the cells with crystal violet: the cells were fixed by adding 20 μl/measuring point of an 11% glutaric aldehyde solution for 15 minutes at room temperature. After three washing cycles of the fixed cells with water, the plates were dried at room temperature. The cells were stained by adding 100 μl/measuring point of a 0.1% crystal violet solution (pH 3.0). After three washing cycles of the stained cells with water, the plates were dried at room temperature. The dye was dissolved by adding 100 μl/measuring point of a 10% acetic acid solution. Absorption was determined by photometry at a wavelength of 595 nm. The change of cell number, in percent, was calculated by normalization of the measured values to the absorption values of the zero-point plate (=0%) and the absorption of the untreated (0 μm) cells (=100%). The IC50 values were determined by means of a 4 parameter fit using the company's own software.

The next experiment deals with HeLa cell line. The experiment in a line: Proliferation assay (HeLa cell line). The note with it: Homo sapiens, 96 h, cervical cancer, 4 days incubation, crystal violet staining, read-out: Biological Assay 2: Proliferation assay (HeLa cell line) median IC50. The format is cell-based. On the procedure: as §1
The subject of another experiment is DU145 cell line. The experiment in a line: Proliferation assay (DU145 cell line). The format is cell-based. The note with it: Homo sapiens, DU-145, 96 h; DU145, prostate cancer; 4 days incubation, crystal violet staining; read-out: Biological Assay 2: Proliferation assay (DU145 cell line) median IC50. On the procedure:
as §1

Another experiment relates to HeLa-MaTu-ADR cell line. The experiment in a line: Proliferation assay (HeLa-MaTu-ADR cell line). Format: cell-based. The note with it: 96 h; HeLa-MaTu-ADR, cervical cancer; 4 days incubation, crystal violet staining; read-out: Biological Assay 2: Proliferation assay (HeLa-MaTu-ADR cell line) median IC50. On the procedure: as §1
In a further experiment the test system is Caco2 cell line. Nature of the experiment: Proliferation assay (Caco2 cell line). Format: cell-based. As to conditions: Homo sapiens, Caco-2, 96 h; Caco2, colon cancer; 4 days incubation, crystal violet staining; read-out: Biological Assay 2: Proliferation assay (Caco2 cell line) median IC50. On the procedure:
as §1

The next experiment has as its system NCI-H460 cell line. Nature of the experiment: Proliferation assay (NCI-H460 cell line). As to conditions: Homo sapiens, 96 h; NCI-H460, non-small cell lung cancer; 4 days incubation, crystal violet staining; read-out: Biological Assay 2: Proliferation assay (NCI-H460 cell line) median IC50. Format: cell-based. On the procedure:
as §1

T1 sequence (O43683 704-1085): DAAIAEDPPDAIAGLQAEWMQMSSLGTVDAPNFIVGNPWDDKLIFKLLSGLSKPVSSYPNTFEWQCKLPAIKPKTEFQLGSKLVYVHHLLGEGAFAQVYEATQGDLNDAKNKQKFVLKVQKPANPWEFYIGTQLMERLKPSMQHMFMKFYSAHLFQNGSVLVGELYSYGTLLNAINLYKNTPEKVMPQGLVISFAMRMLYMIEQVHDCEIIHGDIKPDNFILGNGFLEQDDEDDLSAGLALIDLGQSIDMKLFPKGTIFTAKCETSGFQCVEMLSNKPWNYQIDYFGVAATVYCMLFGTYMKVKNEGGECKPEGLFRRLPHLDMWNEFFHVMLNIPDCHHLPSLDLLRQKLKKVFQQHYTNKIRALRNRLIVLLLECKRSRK

In the case of `Fc1ccccc1Cn1nc(-c2nc(Nc3ccncc3)cc(Nc3ccncc3)n2)c2ccccc21` [Example 2-1-2, 2-[1-(2-fluorobenzyl)-1H-indazol-3-yl]-N,N′-di(pyridin-4-yl)pyrimidine-4,6-diamine], the IC50 was over 20 µM in experiment [1]; 0.25 µM with B16F10 cell line; 0.49 µM in the experiment with HeLa cell line; 0.36 µM with DU145 cell line; 1.5 µM in the experiment on HeLa-MaTu-ADR cell line; 1.1 µM in the experiment with Caco2 cell line. Besides, the IC50 in the experiment on NCI-H460 cell line worked out at 0.47 µM.
